Test results published in paper PMC5927461, “Activation of host transient receptor potential (TRP) channels by praziquantel stereoisomers” (PLoS Neglected Tropical Diseases, 2018).

Tests used:
[1] = test system: mesenteric vessels isolated from a TRPM8 knockout mouse; experiment: Wire myography, KPSS-contracted mesenteric vessels from TRPM8 knockout mice; details: TRPM8 KO tissue; 50μM
TRPM5 = target: T1, TRPM5 (Homo sapiens, UniProt Q9NZQ8); experiment: TRP channel panel primary screen (membrane potential dye, stable CHO line); format: cell-based; details: 0.3-300μM
T1 sequence (Q9NZQ8 1-1165): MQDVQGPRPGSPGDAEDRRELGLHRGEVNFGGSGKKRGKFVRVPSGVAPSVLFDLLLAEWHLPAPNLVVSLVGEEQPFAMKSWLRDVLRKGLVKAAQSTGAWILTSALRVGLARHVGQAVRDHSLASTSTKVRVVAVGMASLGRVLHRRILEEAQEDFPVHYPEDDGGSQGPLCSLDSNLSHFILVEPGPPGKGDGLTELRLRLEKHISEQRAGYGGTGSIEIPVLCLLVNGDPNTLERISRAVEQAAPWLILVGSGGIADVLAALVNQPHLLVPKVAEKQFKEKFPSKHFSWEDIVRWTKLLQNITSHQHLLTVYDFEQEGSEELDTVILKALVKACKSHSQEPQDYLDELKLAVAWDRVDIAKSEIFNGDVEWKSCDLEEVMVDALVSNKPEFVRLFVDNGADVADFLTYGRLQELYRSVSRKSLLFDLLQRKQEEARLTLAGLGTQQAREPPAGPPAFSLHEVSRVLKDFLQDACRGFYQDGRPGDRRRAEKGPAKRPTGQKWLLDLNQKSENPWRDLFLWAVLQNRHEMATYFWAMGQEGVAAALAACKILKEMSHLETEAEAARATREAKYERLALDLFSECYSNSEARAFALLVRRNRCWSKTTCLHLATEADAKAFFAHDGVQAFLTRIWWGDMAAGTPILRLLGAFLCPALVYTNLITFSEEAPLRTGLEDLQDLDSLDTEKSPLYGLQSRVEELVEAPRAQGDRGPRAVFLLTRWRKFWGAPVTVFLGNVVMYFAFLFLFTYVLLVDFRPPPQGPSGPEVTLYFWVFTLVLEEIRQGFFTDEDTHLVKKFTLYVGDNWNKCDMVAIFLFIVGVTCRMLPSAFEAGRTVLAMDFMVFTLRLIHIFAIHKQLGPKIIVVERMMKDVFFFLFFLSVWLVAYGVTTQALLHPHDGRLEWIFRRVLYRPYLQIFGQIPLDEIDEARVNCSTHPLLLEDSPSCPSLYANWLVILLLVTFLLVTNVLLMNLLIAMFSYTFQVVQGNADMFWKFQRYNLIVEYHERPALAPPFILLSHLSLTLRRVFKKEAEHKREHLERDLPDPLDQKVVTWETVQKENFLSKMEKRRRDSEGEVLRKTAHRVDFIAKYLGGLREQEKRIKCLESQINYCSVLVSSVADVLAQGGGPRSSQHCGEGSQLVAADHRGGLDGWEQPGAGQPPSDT
Procedure: ±PZQ, (R)-PZQ and (S)-PZQ were screened against a panel of 17 human TRP channels (SB Drug Discovery, Glasgow). For all hTRPs, except for TRPM5, individual channel constructs were stably expressed in HEK cell lines. TRMP5 was expressed in a stable CHO cell line. In preparation for the assays, cells were trypsinized, counted and seeded (50,000 cells/well) in black, clear-bottomed 96 well plates and incubated overnight. […] Plates were screened using a Flexstation (Molecular Devices, FX01138), monitoring fluorescence values every ~1.52 seconds. For ‘agonist mode’ testing, 10μl of the appropriate test compound, or standard agonist, was added after 20 seconds and fluorescence monitored for 2 minutes at λex = 485nm, λem = 525nm for Ca^2+ imaging and λex = 530nm, λem = 565nm for membrane potential measurements. […]

TRPV1 [2] = target: T2, TRPV1 (Homo sapiens, UniProt Q8NER1); experiment: TRP channel panel primary screen (FLIPR Calcium 5, stable HEK line); format: cell-based; details: 0.3-300μM
T2 sequence (Q8NER1 whole entry): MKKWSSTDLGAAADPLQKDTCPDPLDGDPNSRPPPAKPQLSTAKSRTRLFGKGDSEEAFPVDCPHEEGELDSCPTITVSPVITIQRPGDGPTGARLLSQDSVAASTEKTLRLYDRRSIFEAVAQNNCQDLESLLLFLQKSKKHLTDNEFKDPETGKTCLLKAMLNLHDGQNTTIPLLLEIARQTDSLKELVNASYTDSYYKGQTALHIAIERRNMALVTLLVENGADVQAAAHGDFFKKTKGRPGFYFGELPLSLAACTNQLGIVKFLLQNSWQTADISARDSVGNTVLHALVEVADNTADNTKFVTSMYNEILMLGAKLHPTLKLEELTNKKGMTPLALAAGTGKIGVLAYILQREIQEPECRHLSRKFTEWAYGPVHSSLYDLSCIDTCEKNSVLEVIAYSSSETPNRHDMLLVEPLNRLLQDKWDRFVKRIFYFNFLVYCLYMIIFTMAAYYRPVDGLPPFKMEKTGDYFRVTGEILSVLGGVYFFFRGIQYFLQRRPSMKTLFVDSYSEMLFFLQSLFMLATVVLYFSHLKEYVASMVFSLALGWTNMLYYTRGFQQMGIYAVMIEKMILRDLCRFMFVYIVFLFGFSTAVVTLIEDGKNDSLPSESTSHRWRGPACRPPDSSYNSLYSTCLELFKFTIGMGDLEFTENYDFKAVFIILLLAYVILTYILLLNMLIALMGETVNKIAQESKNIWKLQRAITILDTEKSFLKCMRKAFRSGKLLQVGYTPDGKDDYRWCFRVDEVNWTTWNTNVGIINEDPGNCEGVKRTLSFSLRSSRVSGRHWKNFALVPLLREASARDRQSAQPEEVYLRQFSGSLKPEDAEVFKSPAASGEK
Procedure: ±PZQ, (R)-PZQ and (S)-PZQ were screened against a panel of 17 human TRP channels (SB Drug Discovery, Glasgow). For all hTRPs, except for TRPM5, individual channel constructs were stably expressed in HEK cell lines. TRMP5 was expressed in a stable CHO cell line. In preparation for the assays, cells were trypsinized, counted and seeded (50,000 cells/well) in black, clear-bottomed 96 well plates and incubated overnight. The following day, cells were loaded with a fluorescent indicator (FLIPR Calcium 5 Assay kit for TRPA1, TRPV1, TRPV2, TRPV3, TRPV4, TRPV5, TRPC1, TRPM2, TRPM3 and TRPM8, or a membrane potential dye (FLIPR Membrane Potential Red Assay Kit for TRPC3, TRPC4, TRPC5, TRPC6, TRPC7, TRPM4 and TRPM5) prepared according to the manufacturer’s instructions in HEPES buffered Hank’s balanced salt solution (HBSS). Dye solution (10μl) was added to appropriate wells and incubated at 37°C for 1 hour. All assays were performed at room temperature. Compounds were tested at 0.3, 1, 3, 10, 30, 100μM and 300μM in triplicate in both agonist and antagonist mode to determine EC50 and IC50 values, which were compared with reference compounds. Compounds were screened at a final DMSO concentration of 0.5%. Plates were screened using a Flexstation (Molecular Devices, FX01138), monitoring fluorescence values every ~1.52 seconds. For ‘agonist mode’ testing, 10μl of the appropriate test compound, or standard agonist, was added after 20 seconds and fluorescence monitored for 2 minutes at λex = 485nm, λem = 525nm for Ca^2+ imaging and λex = 530nm, λem = 565nm for membrane potential measurements. For ‘antagonist mode’ testing, test compounds and standard inhibitors were added to appropriate wells and incubated for 10 minutes at room temperature prior to addition of standard agonist compound.

TRPV1 [3] = target: T2, TRPV1; experiment: Single cell confocal Ca2+ imaging (fluo-4) in transfected HEK293 cells; format: cell-based; parameters: host or cells: HEK293 (ATCC CRL-1573.3), transient; details: capsaicin 1μM, ±PZQ 100μM
Source text: Human TRPM8 cDNA was a VersaClone from R&D Systems (RDC0188). Plasmids encoding human TRPA1 and human TRPV1 cDNA were purchased from DNASU plasmid repository (HsCD00080227 and HsCD00081472, respectively). The TRP channel coding sequences were subcloned into pCS2+ to introduce a COOH-term myc tag using the InFusion HD method (Clontech), HindIII/XhoI restriction enzymes (NEB) and the following primers: TRPM8 F–TGGGGACGTCGGAGC-aagctt-[…]; TRPM8 R–AAATCGATGGGATGC-ctcgag-[…]; TRPA1 F-GGACGTCGGAGC-aagctt- atgaagcgcagcctgagg; TRPA1 R-TCGATGGGATGC-ctcgag-[…]; TRPV1 F–GGACGTCGGAGC-aagctt-[…]; TRPV1 R-TCGATGGGATGC-ctcgag-cttctccccggaagcgg (where upper case specifies vector-specific sequences, italics indicate restriction sites, and lower case indicates TRP channel specific sequences). Primers are listed in a 5’ to 3’ orientation.
HEK293 cells (ATCC CRL-1573.3) were cultured in DMEM supplemented with 10% fetal bovine serum (FBS), penicillin (100 units/ml), streptomycin (100 μg/ml), and L-glutamine (290 μg/ml). Cells were transiently transfected (Lipofectamine LTX, Thermo Fisher) at a density of 2x10^6 cells per T-25 cell-culture flask with TRP channel cDNA. For Ca^2+ imaging assays, HEK293 cells were seeded onto 8-chambered coverglass slides (Thermo Fisher, 115411PK), at a density of 1x10^4 cells one day prior to imaging. Cells were washed twice with HBSS, and incubated with fluo-4-AM (4μM), pluronic F127 (0.4%) and probenecid (2.5mM) for 25 minutes at room temperature. Cells were then washed twice with HBSS, and left at room temperature (30 minutes) for de-esterification. Dishes were mounted on an Olympus IX81 microscope and fluorescence changes (λex = 488nM, λem = 513±15nm bandpass filter) monitored using a Yogokawa spinning disk confocal (CSU-X-M1N) and an Andor iXon Ultra 888 EMCCD camera.

SMILES | extent of relaxation [1] | activation of TRPM5 in primary screen (TRPM5) | activity against TRPV1 in primary screen (TRPV1 [2]) | Ca2+ signal in TRPV1 expressing cells (TRPV1 [3])
O=C(C1CCCCC1)N1CC(=O)N2CCc3ccccc3[C@H]2C1 [(S)-PZQ] | ~ 30 % of peak KPSS-evoked tone | not activated | – | –
O=C(C1CCCCC1)N1CC(=O)N2CCc3ccccc3C2C1 (racemic) [±PZQ, praziquantel] | – | – | no activity | No responses
